For one series, the target named is T1, β-glucuronidase (Bos taurus, UniProt A3KMY8).
T1 sequence (A3KMY8 24-652): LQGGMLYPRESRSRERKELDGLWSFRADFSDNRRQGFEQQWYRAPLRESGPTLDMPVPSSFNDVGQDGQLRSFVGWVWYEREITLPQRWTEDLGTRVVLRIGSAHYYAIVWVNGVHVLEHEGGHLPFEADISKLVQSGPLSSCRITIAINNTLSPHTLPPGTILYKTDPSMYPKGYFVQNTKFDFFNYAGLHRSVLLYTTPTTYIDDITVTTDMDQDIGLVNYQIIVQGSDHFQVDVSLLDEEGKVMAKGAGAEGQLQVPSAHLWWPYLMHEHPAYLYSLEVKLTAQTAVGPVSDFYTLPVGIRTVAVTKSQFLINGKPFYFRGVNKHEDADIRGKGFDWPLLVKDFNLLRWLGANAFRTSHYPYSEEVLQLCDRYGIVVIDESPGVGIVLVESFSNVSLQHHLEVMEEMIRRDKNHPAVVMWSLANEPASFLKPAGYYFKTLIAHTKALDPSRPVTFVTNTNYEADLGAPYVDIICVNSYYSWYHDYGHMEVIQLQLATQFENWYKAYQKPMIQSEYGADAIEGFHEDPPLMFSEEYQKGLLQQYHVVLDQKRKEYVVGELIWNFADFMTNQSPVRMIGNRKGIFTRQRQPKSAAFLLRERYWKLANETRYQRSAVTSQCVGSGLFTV
Kind of series: β-Glucuronidase assay (p-nitrophenyl-β-D-glucuronide, absorbance at 405 nm). The conditions noted are these: classified into three groups from Table 1. In kind it is biochemical. As for the experimental part:
β-glucuronidase activity was determined in accordance to method used by measuring absorbance at 405 nm of p-nitrophenol formed substrate by spectrophotometric method. 250 µL was the volume of total reaction. Reaction mixture containing 5 µL of test compound solution, 185 µL of 0.1M acetate buffer, and 10 µL of enzyme solution were incubated for 30 min at 37 °C. At 405 nm the plates were recorded on multiplate reader (SpectaMax plus 384) after the addition of 50 µL of 0.4mM p-nitrophenyl-β-D-glucuronide. Experiments were performed for triplicate.

The text below walks through data of publication PMC6429331, “Synthesis, Molecular Docking and β-Glucuronidase Inhibitory Potential of Indole Base Oxadiazole Derivatives” (Molecules, 2019).

By melting point is commonly meant the temperature of the solid-liquid transition.

`Cc1ccc(-c2nnc(Cc3cc4ccccc4[nH]3)o2)cc1` [Compound 1, 2-((1H-indol-2-yl)methyl)-5-(p-tolyl)-1,3,4-oxadiazole] registered a melting point of 304 to 305 °C. Further, the “activity group according to inhibitory IC50 values” at β-glucuronidase was “low active group”.

The compound `Cc1ccccc1-c1nnc(Cc2cc3ccccc3[nH]2)o1` [Compound 2, 2-((1H-indol-2-yl)methyl)-5-(o-tolyl)-1,3,4-oxadiazole] yielded a melting point of 300 to 301 °C. Besides, on β-glucuronidase, the “activity group according to inhibitory IC50 values” is listed as “low active group”.

As for `Oc1ccccc1-c1nnc(Cc2cc3ccccc3[nH]2)o1` [Compound 3, 2-(5-((1H-indol-2-yl)methyl)-1,3,4-oxadiazol-2-yl) phenol], the melting point was in the range of 314 to 315 °C.

`Oc1cccc(-c2nnc(Cc3cc4ccccc4[nH]3)o2)c1` [Compound 4, 3-(5-((1H-indol-2-yl)methyl)-1,3,4-oxadiazol-2-yl) phenol] came in with a melting point of 311 to 312 °C. Also, the “activity group according to inhibitory IC50 values” at β-glucuronidase was “moderate active group”.

As for `Oc1ccc(O)c(-c2nnc(Cc3cc4ccccc4[nH]3)o2)c1` [Compound 5, 2-(5-((1H-indol-2-yl)methyl)-1,3,4-oxadiazol-2-yl) benzene-1,4-diol], the “activity group according to inhibitory IC50 values” on β-glucuronidase is listed as “moderate active group”.

Consider `Oc1cccc(-c2nnc(Cc3cc4ccccc4[nH]3)o2)c1O` [Compound 6, 3-(5-((1H-indol-2-yl)methyl)-1,3,4-oxadiazol-2-yl) benzene-1,2-diol], for which the melting point lay within 317 to 318 °C. Also, the “activity group according to inhibitory IC50 values” at β-glucuronidase was “Highly active group”.

In turn, `Oc1ccc(-c2nnc(Cc3cc4ccccc4[nH]3)o2)cc1O` [Compound 7, 4-(5-((1H-indol-2-yl)methyl)-1,3,4-oxadiazol-2-yl) benzene-1,2-diol] showed a melting point of 316 to 317 °C. Moreover, on β-glucuronidase, the “activity group according to inhibitory IC50 values” is reported as “Highly active group”.

Take `Oc1ccc(-c2nnc(Cc3cc4ccccc4[nH]3)o2)c(O)c1` [Compound 8, 4-(5-((1H-indol-2-yl)methyl)-1,3,4-oxadiazol-2-yl) benzene-1,3-diol]: the melting point fell in the range of 318 to 319 °C.

The compound `O=[N+]([O-])c1ccccc1-c1nnc(Cc2cc3ccccc3[nH]2)o1` [Compound 10, 2-((1H-indol-2-yl)methyl)-5-(2-nitrophenyl)-1,3,4-oxadiazole] returned a melting point of 307 to 308 °C.

`O=[N+]([O-])c1cccc(-c2nnc(Cc3cc4ccccc4[nH]3)o2)c1` [Compound 11, 2-((1H-indol-2-yl)methyl)-5-(3-nitrophenyl)-1,3,4-oxadiazole]: the melting point is 303 to 304 °C.

`O=[N+]([O-])c1ccc(-c2nnc(Cc3cc4ccccc4[nH]3)o2)cc1` [Compound 12, 2-((1H-indol-2-yl)methyl)-5-(4-nitrophenyl)-1,3,4-oxadiazole] displayed a melting point of 309 to 310 °C.

As for `COc1ccc(O)c(-c2nnc(Cc3cc4ccccc4[nH]3)o2)c1` [Compound 13, 2-(5-((1H-indol-2-yl)methyl)-1,3,4-oxadiazol-2-yl)-4-methoxyphenol], the melting point was in the range of 313 to 314 °C.

Regarding `c1cncc(-c2nnc(Cc3cc4ccccc4[nH]3)o2)c1` [Compound 16, 2-((1H-indol-2-yl)methyl)-5-(pyridin-3-yl)-1,3,4-oxadiazole], the melting point lay within 279 to 280 °C.

`c1ccc2[nH]c(Cc3nnc(-c4ccncc4)o3)cc2c1` [Compound 17, 2-((1H-indol-2-yl)methyl)-5-(pyridin-4-yl)-1,3,4-oxadiazole] had a melting point of 284 to 285 °C.

As to `Fc1ccccc1-c1nnc(Cc2cc3ccccc3[nH]2)o1` [Compound 18, 2-((1H-indol-2-yl)methyl)-5-(2-fluorophenyl)-1,3,4-oxadiazole], the melting point was 294 to 295 °C.
